Laboratory results taken from patent US20210179591A1, “NEW COMPOUNDS FOR USE AS A THERAPEUTICALLY ACTIVE SUBSTANCE AND IN PARTICULAR FOR USE IN THE TREATMENT OF TUMORS” (ETH ZURICH, priority 2017, published 2021).
Read-outs that look alike come from different tables or passages of the source.

Tests used:
GST-DYRK1B = molecular target: T1, GST-DYRK1B (Homo sapiens, UniProt Q9Y463); assay: IC50 determination of DYRK1B inhibitors (ADP-Glo in vitro kinase assay with DYRKtide); assay type: biochemical; settings: ATP 100 μM
T1 construct: purchased ThermoFisher
T1 sequence (Q9Y463 whole entry): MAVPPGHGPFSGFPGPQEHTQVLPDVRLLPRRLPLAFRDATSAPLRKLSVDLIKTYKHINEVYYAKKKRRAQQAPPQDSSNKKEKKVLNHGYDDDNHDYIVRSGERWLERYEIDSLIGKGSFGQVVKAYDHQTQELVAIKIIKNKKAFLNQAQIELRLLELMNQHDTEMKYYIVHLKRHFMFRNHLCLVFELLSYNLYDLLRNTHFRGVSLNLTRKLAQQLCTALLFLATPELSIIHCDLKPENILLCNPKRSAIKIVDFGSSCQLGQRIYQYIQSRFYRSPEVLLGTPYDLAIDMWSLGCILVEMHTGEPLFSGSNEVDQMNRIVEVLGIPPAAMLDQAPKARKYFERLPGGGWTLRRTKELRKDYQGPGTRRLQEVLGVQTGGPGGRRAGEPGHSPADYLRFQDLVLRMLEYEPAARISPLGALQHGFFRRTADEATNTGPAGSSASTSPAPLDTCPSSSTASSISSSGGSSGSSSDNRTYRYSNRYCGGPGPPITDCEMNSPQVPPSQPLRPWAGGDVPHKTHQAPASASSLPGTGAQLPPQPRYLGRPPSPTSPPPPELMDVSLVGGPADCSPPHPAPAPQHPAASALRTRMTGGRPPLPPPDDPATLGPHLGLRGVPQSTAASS
Method: In a preferred embodiment, the compounds of the present invention show inhibition of DYRK1B and/or DYRK1A to a higher extent than expected by the skilled person. The inhibition may be expressed as IC50, i.e. the concentration necessary to inhibit activity to 50%. […] The IC50 value may be determined using methods such as those described in the examples. As such, a suitable method comprises the steps of incubating GST-DYRK1B (e.g. at 5 nM) and DYRKtide (e.g. at 50 μM) in kinase buffer, following compound dispensing (e.g. 1 μl), e.g. 2 μl of ATP (final concentration e.g. 100 μM) and incubating, preferably at room temperature. After that, a detectable compound such as ADP-Glo™ reagent can be dispensed and incubated, preferably at room temperature. Finally, Kinase Detection Reagent can be dispensed and the solution be incubated before measuring.
Compounds of formula 16, 12, 14, 10 and 19 inhibited DYRK1B (SEQ. ID. NO. 1) kinase activity with an IC50 of 2 μM, 2 μM, 3 μM, 4 μM and 3 μM respectively. Titration curves show average of n=3 independent experiments, average±SD.
GST-DYRK1B (5 nM) and DYRKtide (50 μM) (Lucerna-Chem AG, D96-58) diluted in kinase buffer were dispensed in white 384 well plate (3572, Corning, N.Y., USA) (2 μl/well). Following compound dispensing (1 μl), 2 μl of ATP (final concentration 100 μM) was added and incubated for 30 min at room temperature. After that, 5 μl of ADP-Glo™ reagent was dispensed and incubated for 40 min at room temperature. Finally, 10 ul of Kinase Detection Reagent was dispensed and incubated for 30 min before measuring the plate on a Tecan infinite M1000pro plate reader (Luminescence mode).

DYRK1B = molecular target: T2, DYRK1B (Homo sapiens, UniProt Q9Y463); assay: In vitro kinase assay, immunoblot of p27 Ser10 phosphorylation by recombinant DYRK1B; assay type: biochemical; settings: recombinant DYRK1B and p27, 100 μM ATP, FIG. 5a
T2 construct: purchased ThermoFisher
T2 sequence (Q9Y463 whole entry): as above
Method: (§1) Cells were lysed in lysis buffer (50 mM Tris-HCl pH 7.5, 250 mM NaCl, 0.5% NP-40, 5 mM NaCl, 5 mM NaF, 5 mM EDTA, 0.5 mM EGTA). Protein were separated in 10% SDS/PAGE gels, as previously described. Ser^10-p27 (sc-12939-R) (1:500) and DYRK1B (sc-390417) (1:200) antibodies were purchased from Santa-Cruz, γ-TUBULIN (ab11316) (1:5000) from Abcam, p27 (610242) (1:500) from BD Biosciences and V5 (R960-25) from Life Technology.
28 ng of GST-DYRK1B (ThermoFisher, NP_004705) and 100 ng of GST-p27 were mixed in 45 μl of kinase buffer (50 mM HEPES (pH 7.5), 1 mM DTT, MgCl2, 0.004% Triton X-100). Serial dilution of AZ191, compound of formula 10 or DMSO were added to the mix and incubated for 5 min at room temperature. 100 μM of ATP was added to start the kinase reaction which was carried out with constant shaking at 30° C. for 30 min. The reaction was terminated by addition of Laemmli buffer and boiled 5 min at 95° C. Finally, the proteins were separated by SDS page and detected by immunoblotting.

HT29 cells = assay: Immunoblot of p27 Ser10 phosphorylation in HT29 cells cultured in hypoxia; assay type: cell-based; settings: FIG. 5b
Method: as §1

[1] = tested on: HT29-HRE MTS (hypoxic cancer cells); assay: Compound treatment of multicellular tumor spheroids (MTS), SYTOX cell death in the hypoxic core; assay type: cell-based; settings: FIGS. 4a to 4e
Method: DMSO was used as negative control, AZ191 as positive control and staurosporine (STS) as a general cytotoxic control. Whole MTS was visualized by Hoechst staining and cell death by SYTOX staining. Scale bar 200 μm. […] Average±SD of n>10 MTS from 3 biological replicates are shown. […] After 72h hours in culture, 10 μl of a mix of SYTOX Orange (S11368) (1:1000) and Hoechst 33258 (1 μM) diluted in DMEM was added to each well of the ULA plate and incubated overnight before image acquisition. MTS were imaged with a 5× objective on Zeiss observer Z.1 microscope equipped with an automated stage, with Hoechst channel used for autofocusing. For each well, images of Hoechst, YFP and SYTOX channels were acquired in the middle of the MTS. Images were analyzed with a custom ImageJ script. Briefly, Hoechst channel images were used to generate a mask of the MTS, which was then scaled to 1:3 and transferred to the SYTOX channel to measure the pixel intensity in the core area of the MTS. HT29-HRE solution (20,000 cells/ml) was dispensed in ULA plates (250 μl/well) and spun at 700 g for 5 min. After 48 h, MTS were treated with 10 μl of serial dilutions of AZ191, compound of formula 10 DMSO or STS. The next day a mix of Hoechst and SYTOX was added to the wells. MTS were then processed as described above.

[2] = average of n=3 independent experiments, read-out: IC50 of DYRK1B kinase activity inhibition (ADP-Glo titration curve)
[3] = IC50 values for selected examples, GST-DYRK1B 5 nM, DYRKtide 50 μM, read-out: IC50

Compound | IC50 (GST-DYRK1B; [2]) | IC50 (GST-DYRK1B; [3]) | further results
CC(Cc1ccncc1)Nc1nccc(-c2cnn(-c3ccccc3F)c2)n1 (centres unmarked) [compound of formula 16] | 2 µM | – | –
Fc1ccccc1-n1cc(-c2ccnc(NCc3ccncc3)n2)cn1 [compound of formula 10, 4-(1-(2-fluorophenyl)-1H-pyrazole-4-yl)-N-(pyridine-4-ylmethyl)pyrimidine-2-amine] | 4 µM | – | inhibition of phosphorylation of DYRK1B substrate p27 at serine 10 (DYRK1B): inhibited the phosphorylation of DYRK1B substrate p27 at serine 10; inhibition of phosphorylation of p27 at serine 10 in cells (HT29 cells): inhibited the phosphorylation of DYRK1B substrate p27 at serine 10; activity against hypoxic cancer cells [1]: high activity
COc1ccccc1-n1cc(-c2ccnc(NCc3cnc(C)cn3)n2)cn1 [4-[1-(2-methoxyphenyl)-1H-pyrazol-4-yl]-N-[(5-methyl-2-pyrazinyl)methyl]-2-pyrimidinamine] | – | 10.3 µM | –
COc1ccccc1-n1cc(-c2ccnc(NCc3c(C)n[nH]c3C)n2)cn1 [compound of formula 19] | 3 µM | – | –
NCCCCCNc1nccc(-c2cnn(-c3ccc(F)cc3)c2)n1 [N-{4-[1-(4-fluorophenyl)-1H-pyrazol-4-yl]pyrimidin-2-yl}pentane-1,5-diamine, reference compound] | – | 15.6 µM | –

Further lines, with some results ahead:

IC50 (GST-DYRK1B; [2]) | IC50 (GST-DYRK1B; [3]) | Compound | further results
3 µM | – | CCNc1nccc(-c2cnn(-c3ccccc3F)c2)n1 [compound of formula 14] | –
– | 6.98 µM | Fc1ccccc1-n1cc(-c2ccnc(NCC(F)F)n2)cn1 [N-(2,2-difluoroethyl)-4-[1-(2-fluorophenyl)-1H-pyrazol-4-yl]pyrimidin-2-amine] | –
– | 3.97 µM | NCCCCCNc1nccc(-c2cnn(-c3ccccc3F)c2)n1 [N-{4-[1-(2-fluorophenyl)-1H-pyrazol-4-yl]pyrimidin-2-yl}pentane-1,5-diamine] | –
– | 2 µM | OCCCCCNc1nccc(-c2cnn(-c3ccccc3F)c2)n1 [5-({4-[1-(2-fluorophenyl)-1H-pyrazol-4-yl]pyrimidin-2-yl}amino)pentan-1-ol] | –
– | 3.52 µM | Cc1cccnc1CNc1nccc(-c2cnn(-c3ccccc3F)c2)n1 [4-[1-(2-fluorophenyl)-1H-pyrazol-4-yl]-N-[(3-methyl-2-pyridinyl)methyl]-2-pyrimidinamine] | –
2 µM | – | Fc1ccccc1-n1cc(-c2ccnc(NC3CCOCC3)n2)cn1 [compound of formula 12] | –
